In data set [1] the target is T1, Nicotinamide N-methyltransferase (Homo sapiens) (UniProt P40261).
T1 sequence (whole entry): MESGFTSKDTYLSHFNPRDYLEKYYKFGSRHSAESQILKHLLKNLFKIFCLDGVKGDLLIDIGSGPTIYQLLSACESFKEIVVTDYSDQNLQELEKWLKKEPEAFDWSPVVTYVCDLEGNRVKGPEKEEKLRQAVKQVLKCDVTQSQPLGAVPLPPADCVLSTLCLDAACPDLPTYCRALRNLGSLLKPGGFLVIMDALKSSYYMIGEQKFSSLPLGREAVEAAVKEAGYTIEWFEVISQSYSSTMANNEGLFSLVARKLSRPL
Kind of data set: Inhibition of recombinant human NNMT expressed in Escherichia coli BL21 (DE3) assessed as Kobs/[I] ratio and measured after 20 mins using nicotinamide as substrate and SAM as cofactor by MTase-Glo reagent based assay.

In data set [2] the target is T1, Nicotinamide N-methyltransferase (Homo sapiens). As to the kind of experiment: Inhibition of NNMT (unknown origin) assessed as formation of MNA at 0.5 uM using nicotinamide as substrate and SAM as cofactor by fluorescence based assay.
For data set [3] the target is unchanged. As to the kind of experiment: Inhibition of human NNMT at 30 uM preincubated for 30 mins followed by substrate, cofactor addition and measured after 60 mins using nicotinamide as substrate and SAM as cofactor by fluorescence enzymatic assay. The following applies: time 90.0 min.
A short description of data set [4]: Inhibition of monkey NNMT preincubated for 30 mins followed by substrate, cofactor addition and measured after 60 mins using nicotinamide as substrate and SAM as cofactor by fluorescence enzymatic assay. Further details: species or system Macaca mulatta.
Substrate in data set [5]: C[S+](CC[C@H](N)C(=O)[O-])C[C@H]1O[C@@H](n2cnc3c(N)ncnc32)[C@H](O)[C@@H]1O
Kind of data set: Binding affinity to recombinant human NNMT expressed in Escherichia coli BL21 (DE3) assessed as Km preincubated for 10 mins followed by SAM addition and measured after 10 mins by Michaelis-Menten analysis. The note with it: time 20.0 min.

Substrate in data set [6]: NC(=O)c1cccnc1
Kind of data set: Binding affinity to recombinant human NNMT expressed in Escherichia coli BL21 (DE3) assessed as Km preincubated for 10 mins followed by NAM addition and measured after 10 mins by Michaelis-Menten analysis. The following applies: time 20.0 min.

With `NC(=O)c1cnccc1Cl`, the Ratio in data set [1] is 80 M⁻¹ min⁻¹. Same read-out and setting: then `Clc1ccncc1`, with 20 M⁻¹ min⁻¹. Turning to `C=C(C)[C@@]12O[C@@]3(/C=C/C=C/CCCCC)O[C@@H]1[C@@H]1[C@@H]4O[C@]4(CO)[C@@H](O)[C@]4(O)C(=O)C(C)=C[C@H]4[C@@]1(O3)[C@H](C)[C@H]2OC(C)=O`, the inhibition in data set [2] is 50%. As to `CNC(=O)c1ccc(OC)nc1`, the inhibition in data set [3] was determined as 20%. With `COc1ccc(C(N)=O)cn1`, the IC50 in data set [4] came out at 2800 nM.

B1: Nicotinamide N-methyltransferase (Homo sapiens), P40261 (protein)
chain: MESGFTSKDTYLSHFNPRDYLEKYYKFGSRHSAESQILKHLLKNLFKIFCLDGVKGDLLIDIGSGPTIYQLLSACESFKEIVVTDYSDQNLQELEKWLKKEPEAFDWSPVVTYVCDLEGNRVKGPEKEEKLRQAVKQVLKCDVTQSQPLGAVPLPPADCVLSTLCLDAACPDLPTYCRALRNLGSLLKPGGFLVIMDALKSSYYMIGEQKFSSLPLGREAVEAAVKEAGYTIEWFEVISQSYSSTMANNEGLFSLVARKLSRPL
As to B1, the Km stood at 8.5 µM in data set [5] and 199 µM in data set [6].

By inhibition is commonly meant the drop in the measured response relative to a control, in per cent. Broadly, the IC50 is the point on the concentration scale where inhibition reaches its midpoint. What is called Km is the concentration of substrate that gives half-maximal velocity.

These data come from ChEMBL document CHEMBL5223061, “Mechanisms and inhibitors of nicotinamide N-methyltransferase” (RSC Med Chem, 2021).
